Active and inactive are the calls of the source. The calls are words filed in the database; no cut-off is given here.
Tests used:
Canis familiaris [1] = test: Compound was evaluated for maximum reduction of ectopic beats after oral administration at a dose 15 mg/kg to dog.; format: functional, Canis lupus familiaris, Heart
Canis familiaris [2] = test: Compound was evaluated for duration of action after oral administration at a dose 12 mg/kg to dog.; format: functional, Canis lupus familiaris
Canis familiaris [3] = test: Compound was evaluated for maximum reduction of ectopic beats after oral administration at a dose 25 mg/kg to dog.; format: functional, Canis lupus familiaris, Heart
Canis familiaris [4] = test: Compound was evaluated for duration of action after oral administration at a dose 25 mg/kg to dog.; format: functional, Canis lupus familiaris
Canis familiaris [5] = test: Compound was evaluated for duration of action after oral administration at a dose 15 mg/kg to dog.; format: functional, Canis lupus familiaris
Canis familiaris [6] = test: Compound was evaluated for maximum reduction of ectopic beats after oral administration at a dose 12 mg/kg to dog.; format: functional, Canis lupus familiaris, Heart
Canis familiaris [7] = test: Minimum effective dose evaluated in mixed-breed or Beagle dogs after intravenous administration; format: functional; settings: Canis lupus familiaris, read-out: MED
[8] = Therapeutic ratio in mixed-breed or Beagle dogs after intravenous administration of the compound.; format: ADME, Canis lupus familiaris; settings: dog, in vivo, read-out: TR
Canis familiaris [9] = test: Antiarrhythmic activity was evaluated in mixed-breed or Beagle dogs after intravenous administration.; format: functional, Canis lupus familiaris, Heart
Canis familiaris [10] = test: Compound was evaluated for onset of action after oral administration at a dose 12 mg/kg to dog.; format: functional, Canis lupus familiaris
Canis familiaris [11] = test: Activity duration index was evaluated in mixed-breed or Beagle dogs after intravenous administration.; format: functional, Canis lupus familiaris
Canis familiaris [12] = test: Compound was evaluated for onset of action after oral administration at a dose 15 mg/kg to dog.; format: functional, Canis lupus familiaris
Canis familiaris [13] = test: Compound was evaluated for onset of action after oral administration at a dose 25 mg/kg to dog.; format: functional, Canis lupus familiaris
Canis familiaris [14] = test: Minimum effective dose was evaluated in mixed-breed or Beagle dogs after intravenous administration of the compound; format: functional; settings: Canis lupus familiaris, read-out: MED
Canis familiaris [15] = test: Compound was evaluated for maximum reduction of ectopic beats after oral administration at a dose 25 mg/kg to dog; L means lethal; format: functional, organism-based; parameters: dose 25 mg/kg; settings: Canis lupus familiaris; Heart
[16] = Therapeutic ratio was evaluated in mixed-breed or Beagle dogs after intravenous administration of the compound; format: ADME, Canis lupus familiaris; settings: dog, in vivo, read-out: TR
Canis familiaris [17] = test: Compound was evaluated for maximum reduction of ectopic beats after oral administration at a dose 15 mg/kg to dog; IA means inactive; format: functional, organism-based; parameters: dose 15 mg/kg; settings: Canis lupus familiaris; Heart
Canis familiaris [18] = test: Compound was evaluated for maximum reduction of ectopic beats after oral administration at a dose 25 mg/kg to dog; IA means inactive; format: functional, organism-based; parameters: dose 25 mg/kg; settings: Canis lupus familiaris; Heart

Row | SMILES | Duration (Canis familiaris [4]) [min] | minimal effective dose (Canis familiaris [7]) [mg/kg] | selectivity ratio [8] | AR (Canis familiaris [9]) | ADI (Canis familiaris [11]) | Onset of action (Canis familiaris [13]) [min] | further results
1 | CC(C)N(CCC(CCN1CCCCC1)(C(N)=O)c1ccccc1Cl)C(C)C (stereo unspecified) [DISOBUTAMIDE] | >360 | 3.3 | 8.8 | 8.4 | 1.76 | 80 | Max reduction (Canis familiaris [1]): 90%; Duration (Canis familiaris [2]): 75 min; Max reduction (Canis familiaris [3]): 100%; Duration (Canis familiaris [5]): 210 min; Reduction (Canis familiaris [6]): 49%; Onset of action (Canis familiaris [10]): 135 min; Onset of action (Canis familiaris [12]): 85 min
2 | CC(C)N(CCC(CCN1CCCCC1)(C(N)=O)c1ccccc1F)C(C)C (stereo unspecified) | 300 | 1.8 | 18 | 6 | 1.47 | 45 | Duration (Canis familiaris [2]): 90 min; Reduction (Canis familiaris [3]): 100%; Reduction (Canis familiaris [6]): 67%; Onset of action (Canis familiaris [10]): 90 min
3 | CC(C)N(CCC(CCN1CCOCC1)(C(N)=O)c1ccccc1Cl)C(C)C (stereo unspecified) |  |  |  | 3.4 | 0.49 |  | minimal effective dose (Canis familiaris [14]): 11.7 mg/kg
4 | CC(C)N(CCC(CCC1CCCCC1)(C(N)=O)c1ccccc1Cl)C(C)C (stereo unspecified) |  | 3.5 |  |  | 3.07 |  | Reduction (Canis familiaris [15]): Lethal; selectivity ratio [16]: 6.1
5 | CC(C)N(CCC(C(N)=O)(c1ccccc1)c1ccccn1)C(C)C (stereo unspecified) [DISOPYRAMIDE] | 120 | 6.6 | 6.6 | 4.1 | 0.5 | 172 | Reduction (Canis familiaris [3]): 79%; Reduction (Canis familiaris [17]): inactive
6 | CC(C)N(CCC(CCN1CC2CCC(CC2)C1)(C(N)=O)c1ccccc1)C(C)C (stereo unspecified) |  | 2.5 | 12.5 | 7 | 0.96 |  | Reduction (Canis familiaris [18]): inactive
7 | CC(C)N(CCC(CCN(C(C)C)C(C)C)(C(N)=O)c1ccc(C(C)(C)C)cc1)C(C)C |  | 2 |  |  | 1.35 |  | selectivity ratio [16]: 4.9

Reference: ChEMBL document CHEMBL1121621, “Synthesis and antiarrhythmic activity of alpha, alpha-bis[(dialkylamino)alkyl]phenylacetamides” (J Med Chem, 1980)
